Experimental data as given in US20190227072A1, “Biomarkers for Carcinogenesis and Uses Thereof” (GEORGETOWN UNIVERSITY, priority 2016, published 2019).
“Also recorded” adds a separate entry of the source.

Columns and labels:
HepG2 cells = test: DHHεdA formation in HepG2 cellular DNA after EH or AA treatment, LC-MS/MS-MRM; type: cell-based, human; conditions: 24 h
Procedure: HepG2 cells (#HB-8065, ATCC, Manassas, Va.) were grown in complete DMEM (#10-013, Corning Life Sciences, Tewksbury, Mass.) until 85-90% confluent. Cells were treated with a final concentration of 100 μM or 300 μM of either arachidonic acid (AA) or EH solubilized in 70% EtOH for 24 h. Cells were then scraped down in media and transferred to a centrifuge tube and spun for 3000 rpm for 5 min. The pellet was washed 2× with 1×PBS, centrifuging between washes. DNA was then isolated from the cells and prepared for LC-MS/MS-MRM, after enzymatic hydrolysis as described above.
DNA was isolated by a QIAGEN Blood and Cell Culture DNA Maxi Kit (#13362, QIAGEN Inc., Valencia, Calif.) using the protocol recommended by the manufacturer. For hydrolysis, dry DNA (50 to 1000 μg) was dissolved in 5 mM magnesium chloride and 0.5 mM GSH solution (1 mL per 1 mg of DNA), then 50 fmol of [^15N5]-DHHεdA 1,2 and 50 fmol of [^15N5]-DHHεdA 3,4 were added as internal standards. DNA was hydrolyzed by incubation with DNase I (1300 units per mg of DNA, #D4527-40KU, Sigma-Aldrich, St. Louis, Mo.) for 30 min at 37° C., followed by a second addition of DNase I (1300 units per mg of DNA) and incubation for an additional 10 min at 37° C. Finally, phosphodiesterase I (0.06 units per mg DNA, #P3243-1VL, Sigma-Aldrich, St. Louis, Mo.), alkaline phosphatase (380 units per mg DNA, #10 108 146 001, Roche Diagnostic GmbH, Mannheim, Germany) and adenosine deaminase (0.5 units, #LS009043, Worthington Biochemical Corporation, Lakewood, N.J.) were added and the sample was incubated for 60 min at 37° C. After hydrolysis, a small portion of the hydrolysate was saved for further T quantification, and the remaining sample was purified using Phenomenex Strata-X 33μ 30 mg/1 mL polymeric reverse phase solid phase extraction columns (#8B-S100-TAK, Phenomenex, Torrance, Calif.). Before loading, samples columns were washed by ACN (3×1 mL) and stabilized by 25 mM ammonium formate pH=4.00 (3×1 mL). After loading, DNA hydrolysate columns were washed by 2.5% ACN in 25 mM ammonium formate pH=4.00 (1×1 mL), 5% ACN in 25 mM ammonium formate pH=4.00 (1×1 mL), followed by DHHεdA collection by 30% ACN in 25 mM ammonium formate pH=4.00 (1×1 mL). The DHHεdA fraction was dried using a SpeedVac rotary concentrator, re-dissolved in 400 μL 1:1 water:ACN, transferred to HPLC vials, dried and kept at −20° C. Before quantification, samples were dissolved in 60 μL of water and 37 μL was injected on LC-MS.
Quantification was carried out on a SCIEX 6500 QTRAP triple quadrupole mass spectrometer (AB Sciex LLC, Framingham, Mass.) interfaced with a Waters ACQUITY UPLC liquid chromatography system equipped with Waters ACQUITY UPLC BEH C18 50×2.1 mm, 1.7 μm particle size column (Waters Corporation, Milford, Mass.). The separation of adducts was performed isocratically by eluting with 13.5% ACN, 1 mM ammonium formate buffer over 6.5 min using 0.5 mL/min flow rate at 40° C., followed by 100% ACN wash. The ESI source operated in positive mode. The MRM experiment was performed using ion transitions of 406.2-290.2 m/z (DHHεdA) and 411.2-295.1 m/z ([^15N5]-DHHεdA) with CE of 28 eV for quantification, and those of 406.2-160.1 m/z (DHHεdA) and 411.2-165.0 m/z ([^15N5]-DHHεdA) with a CE of 76 eV were used for structural confirmation. All other parameters were optimized to achieve maximum signal intensity. Calibration curves were constructed for two HPLC resolved peaks before each analysis using standard solutions of DHHεdA and [^15N5]-DHHεdA. A constant concentration of [^15N5]-DHHεdA (1 fmol/μL) was used with different concentrations of DHHεdA (3.3 amol/μL-65 fmol/μL) and analyzed using 37 μL injections by LC-MS/MS-MRM. The standard curves were linear in the range from 0.37 to 800 fmol of DHHεdA on column for both peaks (1/x weighting; r^2=0.9998 and r^2=0.9984 for both LC resolved pairs of DHHεdA stereoisomers 1,2 and 3,4 respectively). […]

[1] = test system: Primary human hepatocytes; test: FACS detection of DHHεdA in nuclei of EH-treated primary human hepatocytes; type: cell-based; conditions: 300 μM EH
Procedure: Primary human hepatocytes (#HUFS1M, Lot#HUM4132, Triangle Research Labs, Durham, N.C.) were cultured in hepatocyte media (#5201, ScienCell Research Laboratories, San Diego, Calif.) until 85-90% confluent. Cells were then treated with a final concentration of 300 μM EH dissolved in 70% EtOH, added to the culture media. The cells were collected at the designated time points following EH treatment: 0, 4, 8, 12 and 24 h. The nuclei were extracted using Nuclei EZ Prep Nuclei Isolation Kit (#NUC-101, Sigma-Aldrich, St. Louis, Mo.) and fixed with 3.7% formaldehyde for 10 min. The nuclei were then prepared for FACS analysis using the method shown previously.
The geometric mean of the fluorescence intensity of Alexa Fluor 488-labeled DHHεdA positive cells was measured using FACS. The output values of triplicate control and EH treatment groups (see above) were averaged and the standard deviation was calculated using Excel. Additionally, a Student's t-test was performed to determine significance by comparing the triplicate values for the control group to those of the EH treated group for each individual time point of 4, 8, 12, and 24 h.

Xpa−/− mice [2] = test: 32-week bioassay of Xpa−/− mice fed antioxidant diets, γ-OHPdG by LC-MS/MS; type: in vivo; conditions: for liver γ-OHPdG levels: antioxidant diet vs control diet, liver DNA, LC-MS/MS; for γ-OHPdG levels in the lungs: antioxidant diet, lung (non-target organ)
From the text: All of the mice were housed in a temperature-controlled, light-regulated space with 12-hour light and dark cycles and were given unrestricted access to food and water throughout the experiments. […] The animals were fed with AIN-76A powder diets obtained from Dyets, Inc. (Bethlehem, Pa.) at the age of 4 weeks; four types of diets (control, α-lipoic acid, Theaphenon E and vitamin-E) were used in this study. The only difference between the diets is the sucrose content to be replaced by the antioxidant (Table 1: the doses of the antioxidants, α-lipoic acid (2 g/kg), Theaphenon E (20 g/kg) and vitamin E (1.8 g/kg)), were selected according to recent studies, respectively. The nutrition for all the four diets was calculated within the range of 3694 to 3766 kcal/kg. […] The liver tissues were dissected and kept at −80° C. until usage for DNA isolation.
DNA (100-500 μg) was dissolved in 5 mM magnesium chloride (800 μL per mg DNA) and spiked with 100 fmol of [^13C10,^15N5]-γ-OHPdG and 50 fmol of [^13C10,^15N5]−/− OHPdG. Enzymatic hydrolysis was performed by incubation with DNase I (1300 units/mg DNA) at 37° C. for 30 min followed by a second addition of DNase I (1300 units/mg DNA). After an additional 10 min at 37° C., alkaline phosphatase (380 units/mg DNA), phosphodiesterase I (0.06 units/mg DNA) and adenosine deaminase (0.5 units) were added, and the mixture was incubated for 1 h. After digestion a small aliquot of hydrolysate was used for dG quantification and the remaining digest was purified by solid phase extraction (SPE) using polymeric C18, 30 mg/1 mL, Strata-X columns (Phenomenex, Inc., Torrance, Calif.). Prior to use, the columns were conditioned by ACN (3×1 mL) and 25 mM ammonium formate buffer pH=4 (3×1 mL). After sample loading, the columns were washed with 2.5% ACN in 25 mM ammonium formate buffer pH=4 (1×1 mL). Then, γ-OHPdG adducts were collected by eluting with 5% ACN in 25 mM ammonium formate buffer pH=4 (1×1 mL). Samples were dried over vacuum using a SpeedVac and kept at −80° C. Before quantification assay samples were reconstituted with 50 μl of water, and 37 μL of sample was injected onto LC-MS/MS.
Detection and quantification of γ-OHPdG adducts was carried on AB SCIEX 6500 QTrap triple quadrupole mass spectrometer (SCIEX, Framingham, Mass.) coupled with an ACQUITY UPLC liquid chromatography system (Waters Corporation, Milford, Mass.) equipped with 50×2.1 mm, 1.7 m particle size C18 column (Waters ACQUITY UPLC BEH C18). The separation of adducts was performed isocratically by eluting with 3% ACN, 1 mM ammonium formate buffer over 3.5 min using 0.5 mL/min flow rate at 40° C., followed by 100% ACN wash. The ESI source operated in positive mode. The multiple reaction monitoring (MRM) experiment was performed using ion transitions of 324.2-208.1 m/z (γ-OHPdG) and 339.2-218.1 m/z ([^13C10,^15N5]-γ-OHPdG) with a collision energy (CE) of 20 eV for quantification, and those of 324.2-190.1 m/z (γ-OHPdG) and 339.2-200.1 m/z ([^13C10,^15N5]-γ-OHPdG) with a CE of 47 eV for structural confirmation. All other parameters were optimized to achieve maximum signal intensity.

Xpa−/− mice [3] = test: 72-week tumor bioassay of Xpa−/− mice fed antioxidant diets; type: in vivo; conditions: 72 weeks on diet, control diet 100%
From the text: C3H/HeN.Xpa^−/− mice were created by crossing C57/B6. Xpa^−/− mice with C3H/HeN mice. The resulting heterozygous mice were then backcrossed to C3H mice for five generations. Mice homogeneous for the Xpa-null allele on a C3H background were subsequently generated by brother-sister mating. All of the mice were housed in a temperature-controlled, light-regulated space with 12-hour light and dark cycles and were given unrestricted access to food and water throughout the experiments. […] The animals were fed with AIN-76A powder diets obtained from Dyets, Inc. (Bethlehem, Pa.) at the age of 4 weeks; four types of diets (control, α-lipoic acid, Theaphenon E and vitamin-E) were used in this study. The only difference between the diets is the sucrose content to be replaced by the antioxidant (Table 1: the doses of the antioxidants, α-lipoic acid (2 g/kg), Theaphenon E (20 g/kg) and vitamin E (1.8 g/kg)), were selected according to recent studies, respectively. The nutrition for all the four diets was calculated within the range of 3694 to 3766 kcal/kg. (n=6-7 for time dependent DNA adduct assay, n=18-19 for tumor bioassay after 72 weeks under different diets (see Table 4)). […] Xpa^−/− mice were fed with four types of diets (control, Theaphenon E, α-lipoic acid, and vitamin E) for 72 weeks.

Compound: CCCCC/C=C\C/C=C\C/C=C\C/C=C\CCCC(=O)O [AA, arachidonic acid]
- DHHεdA peak 1 (HepG2 cells; HepG2, low dose (100 μM)): bdl
- DHHεdA peak 2 (HepG2 cells; HepG2, low dose (100 μM)): bdl
- Total DHHεdA (HepG2 cells; HepG2, low dose (100 μM)): bdl

Compound: CCCCCC(O)C1OC1C=O (centres unmarked) [EH, 2,3-epoxy-4-hydroxynonanal]
- DHHεdA peak 1 (HepG2 cells; human, 100 μM): 14.1 adducts/T × 10^9
- DHHεdA peak 2 (HepG2 cells; human, 100 μM): 139.4 adducts/T × 10^9
- Total DHHεdA (HepG2 cells; human, 100 μM): 153.5 adducts/T × 10^9
- DHHεdA peak 1 (HepG2 cells; human, 300 μM): 186.6 adducts/T × 10^9
- DHHεdA peak 2 (HepG2 cells; human, 300 μM): 2043.8 adducts/T × 10^9
- Total DHHεdA (HepG2 cells; human, 300 μM): 2230.4 adducts/T × 10^9
- cell death ([1]; 24 h): less than 20%
- mean fluorescence intensity of DHHεdA in nuclei (FACS, 3C9C9) ([1]; 4, 8, 12 and 24 h vs control): significant difference between control and EH treated cells for every time point

Compound: O=C(O)CCCCC1CCSS1 (stereo not drawn) [α-lipoic acid]
- liver γ-OHPdG levels (Xpa−/− mice [2]): effectively decreased; also recorded: significant decrease
- γ-OHPdG levels in the lungs (Xpa−/− mice [2]): no significant changes
- HCC incidence (Xpa−/− mice [3]): 65%

Compound: vitamin E
- liver γ-OHPdG levels (Xpa−/− mice [2]): but not vitamin E, effectively decreased; also recorded: significant decrease
- γ-OHPdG levels in the lungs (Xpa−/− mice [2]): no significant changes
- HCC incidence (Xpa−/− mice [3]): no significant effect
